Reference: EP4806898A1, “HETEROARYL DERIVATIVE COMPOUND AND USE THEREOF” (Voronoi Inc., priority 2023, dated 2025)
Read-outs that look alike come from different tables or passages of the source.

Tests used:
UWB1.289 cells = experiment: Cell proliferation inhibitory activity in BRCA1/2-mutant or HRD-positive cells (Cell Titer-Glo); type: cell-based; conditions: UWB1.289 cells, 144 hours after compound treatment, Cell Titer-Glo, 1.5 nM to 10 µM, read-out: GI50 UWB1.289 BRCA1 mut
Method: <Experimental Example 2> Evaluation of Cell Proliferation Inhibitory Activity in BRCA1/2-Mutant or HRD-Positive Cells
To evaluate the inhibitory activity of the compound according to the present invention on the proliferation of BRCA1/2 mutants or homologous recombination deficient (HRD) positive cell lines, the following experiments were performed. UWB1.289 cells were cultured in medium (50% MEBM + 50% RPMI1640), and 1,000 cells were seeded in a well plate (black clear bottom 96-well plate, Corning) 16 to 24 hours prior to compound treatment. The compounds were diluted in dimethyl sulfoxide (3-fold serial dilution starting at 10 µM, for a total of 10 concentrations) and injected at 1 µl per well, resulting a final concentration range of […] to 10 µM. Measurements of live cells were performed by a reaction in a 37 °C and CO2 incubator for 144 hours after compound treatment. The cells were incubated for 10 minutes in an incubator using Cell Titer-Glo luminescent cell-viability reagent (Promega), and luminescence intensity thereof was measured using a reader (SynergyNeo2, Biotek). GI50 values were calculated using the GraphPad Prism version 8.4.3 (GraphPad software Inc., San Diego) program.

recombinant USP1 protein = biological target: T1, recombinant USP1 protein (Homo sapiens, UniProt O94782, DEL125-138/DEL229-408/DEL608-737); experiment: Binding affinity to recombinant USP1 protein by differential scanning fluorimetry; conditions: compound 100 µM, 0.03 mg/mL USP1 (Δ1-66, Δ125-138, Δ229-408, Δ608-737), Tm with compound minus Tm with DMSO; for ΔTm at 100 µM: read-out: ΔTm (°C)
T1 sequence (O94782 with tags, fused parts or gaps DEL125-138/DEL229-408/DEL608-737): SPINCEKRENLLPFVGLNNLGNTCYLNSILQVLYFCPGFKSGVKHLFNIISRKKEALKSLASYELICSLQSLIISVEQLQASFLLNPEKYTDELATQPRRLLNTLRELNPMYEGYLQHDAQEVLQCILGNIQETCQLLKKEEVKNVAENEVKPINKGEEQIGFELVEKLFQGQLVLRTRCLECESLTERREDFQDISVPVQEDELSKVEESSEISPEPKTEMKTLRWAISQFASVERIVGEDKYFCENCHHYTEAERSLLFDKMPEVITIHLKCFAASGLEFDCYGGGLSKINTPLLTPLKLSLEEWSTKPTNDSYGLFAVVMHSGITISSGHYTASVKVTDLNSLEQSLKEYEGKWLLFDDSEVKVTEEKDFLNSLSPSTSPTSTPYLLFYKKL
Method: <Experimental Example 1> Confirmation and evaluation of the binding affinity to recombinant USP1 protein
To evaluate the binding affinity of the compounds of the present invention to the USP1 protein, the following experiment was performed using differential scanning fluorimetry.
Recombinant 0.03 mg/mL USP1 (Δ1-66, Δ125-138, Δ229-408, Δ608-737) protein, dye reagent, and buffer solution (50 mM Tris-HCl pH 8.0, 150 mM NaCl, 2% glycerol, 1 mM DTT) were mixed and 19 µL of the mixture was dispensed into a well plate (MicroAmp Fast 96-Well Reaction plate, 0.1 mL). Each compound was injected at a final concentration of 100 µM in an amount of 1 µL, and the plate containing a total of 20 µL was sealed with MicroAmp Optical Adhesive Film. The melting temperature (Tm) of the protein in each well was measured using a real-time PCR (RT-PCR) device. The difference between the Tm of the sample containing the compound and the Tm containing DMSO is referred to as delta Tm (ΔTm), where a larger ΔTm value indicates stronger binding affinity. The degree of temperature at which the protein is modified in the presence of the compound compared to DMSO was calculated according to Equation 1 below: [formula]

Row | Molecule | ΔTm (°C) (recombinant USP1 protein) | ΔTm at 100 µM (recombinant USP1 protein) [°C] | GI50 (UWB1.289 cells) [nM] | GI50 (UWB1.289 cells; UWB1289) [nM]
1 | 2-(4-cyclopropyl-6-ethoxypyrimidi n-5-yl)-7-(4-(1-isopropyl-4-(trifluorometh yl)-1H-imidazol-2-yl)benzyl)-N-methyl-7H-pyrrolo[2,3-d]pyrimidine-6-carboxamide [Example 63] | A (ΔTm (°C) > 5 °C) | – | < 100 | –
2 | CNC(=O)c1cc2cnc(-c3c(OC)ncnc3C3CC3)nc2n1Cc1ccc(-c2nc(C(F)(F)F)cn2C(C)C)cc1 [Example 1, 2-(4-cyclopropyl-6-methoxypyrimidin-5-yl)-7-(4-(1-isopropyl-4-(trifluoromethyl)-1H-imidazol-2-yl)benzyl)-N-methyl-7H-pyrrolo[2,3-d]pyrimidine-6-carboxamide] | – | > 5 | – | < 100
3 | CNC(=O)c1cc2cnc(-c3ccccc3C(C)C)nc2n1Cc1ccc(-c2nc(C(F)(F)F)cn2C(C)C)cc1 [Example 2, 7-(4-(1-isopropyl-4-(trifluoromethyl)-1H-imidazol-2-yl)benzyl)-2-(2-isopropylphenyl)-N-methyl-7H-pyrrolo[2,3-d]pyrimidine-6-carboxamide] | – | > 5 | – | < 100
4 | CC[C@@H](C)NC(=O)c1cc2cnc(-c3c(OC)ncnc3C3CC3)nc2n1Cc1ccc(-c2nc(C(F)(F)F)cn2C(C)C)cc1 [Example 92, (R)-N-(sec-butyl)-2-(4-cyclopropyl-6-methoxypyrimidin-5-yl)-7-(4-(1-isopropyl-4-(trifluoromethyl)-1H-imidazol-2-yl)benzyl)-7H-pyrrolo[2,3-d]pyrimidine-6-carboxamide] | – | – | – | < 100
5 | COc1ncnc(C2CC2)c1-c1ncc2cc(C(=O)NC[C@H]3CCCN3C)n(Cc3ccc(-c4nc(C(F)(F)F)cn4C(C)C)cc3)c2n1 [Example 136, (R) -2-(4-cyclopropyl-6-methoxypyrimidin-5-yl)-7-(4-(1-isopropyl-4-(trifluoromethyl)-1H-imidazol-2-yl)benzyl)-N-((1-methylpyrrolidin-2-yl)methyl)-7H-pyrrolo[2,3-d]pyrimidine-6-carboxamide] | – | – | – | < 100
6 | COc1ncnc(C2CC2)c1-c1ncc2cc(C(N)=O)n(Cc3ccc(-c4nc(C(F)(F)F)cn4C)cc3)c2n1 [Example 148, 2-(4-cyclopropyl-6-methoxypyrimidin-5-yl)-7-(4-(1-methyl-4-(trifluoromethyl)-1H-imidazol-2-yl)benzyl)-7H-pyrrolo[2,3-d]pyrimidine-6-carboxamide] | – | – | – | < 100
7 | COc1ncnc(C2CC2)c1-c1ncc2cc(C(=O)NC3CCNCC3)n(Cc3ccc(-c4nc(C(F)(F)F)cn4C(C)C)cc3)c2n1 [Example 159, 2-(4-cyclopropyl-6-methoxypyrimidin-5-yl)-7-(4-(1-isopropyl-4-(trifluoromethyl)-1H-imidazol-2-yl)benzyl)-N-(piperidin-4-yl)-7H-pyrrolo[2,3-d]pyrimidine-6-carboxamide] | – | – | – | 100 to 500

Now from value to molecule, other results behind:

Row | ΔTm (°C) (recombinant USP1 protein) | ΔTm at 100 µM (recombinant USP1 protein) [°C] | Molecule | GI50 (UWB1.289 cells) [nM] | GI50 (UWB1.289 cells; UWB1289) [nM]
8 | – | > 5 | [2H]C([2H])([2H])Oc1ncnc(C2CC2)c1-c1ncc2cc(C(=O)NC)n(Cc3ccc(-c4nc(C(F)(F)F)cn4C(C)C)cc3)c2n1 [Example 3, 2-(4-cyclopropyl-6-(methoxy-d3)pyrimidin-5-yl)-7-(4-(1-isopropyl-4-(trifluoromethyl)-1H-imidazol-2-yl)benzyl)-N-methyl-7H-pyrrolo[2,3-d]pyrimidine-6-carboxamide] | – | < 100
9 | – | > 5 | CCNC(=O)c1cc2cnc(-c3c(OC)ncnc3C3CC3)nc2n1Cc1ccc(-c2nc(C(F)(F)F)cn2C(C)C)cc1 [Example 4, 2-(4-cyclopropyl-6-methoxypyrimidin-5-yl)-N-ethyl-7-(4-(1-isopropyl-4-(trifluoromethyl)-1H-imidazol-2-yl)benzyl)-7H-pyrrolo[2,3-d]pyrimidine-6-carboxamide] | – | < 100
10 | – | > 5 | COc1ncnc(C2CC2)c1-c1ncc2cc(C(=O)N(C)C)n(Cc3ccc(-c4nc(C(F)(F)F)cn4C(C)C)cc3)c2n1 [Example 5, 2-(4-cyclopropyl-6-methoxypyrimidin-5-yl)-7-(4-(1-isopropyl-4-(trifluoromethyl)-1H-imidazol-2-yl)benzyl)-N,N-dimethyl-7H-pyrrolo[2,3-d]pyrimidine-6-carboxamide] | – | < 100
11 | – | > 5 | COc1ncnc(C2CC2)c1-c1ncc2cc(C(=O)NCCN3CCOCC3)n(Cc3ccc(-c4nc(C(F)(F)F)cn4C(C)C)cc3)c2n1 [Example 6, 2-(4-cyclopropyl-6-methoxypyrimidin-5-yl)-7-(4-(1-isopropyl-4-(trifluoromethyl)-1H-imidazol-2-yl)benzyl)-N-(2-morpholinoethyl)-7H-pyrrolo[2,3-d]pyrimidine-6-carboxamide] | – | < 100
12 | – | > 5 | COc1ncnc(C2CC2)c1-c1ncc2cc(C(=O)NCC3(CO)CC3)n(Cc3ccc(-c4nc(C(F)(F)F)cn4C(C)C)cc3)c2n1 [Example 7, 2-(4-cyclopropyl-6-methoxypyrimidin-5-yl)-N-((1-(hydroxymethyl)cyclopropyl)methyl)-7-(4-(1-isopropyl-4-(trifluoromethyl)-1H-imidazol-2-yl)benzyl)-7H-pyrrolo[2,3-d]pyrimidine-6-carboxamide] | – | < 100
13 | – | > 5 | [2H]C([2H])([2H])NC(=O)c1cc2cnc(-c3c(OC)ncnc3C3CC3)nc2n1Cc1ccc(-c2nc(C(F)(F)F)cn2C(C)C)cc1 [Example 9, 2-(4-cyclopropyl-6-methoxypyrimidin-5-yl)-7-(4-(1-isopropyl-4-(trifluoromethyl)-1H-imidazol-2-yl)benzyl)-N-(methyl-d3)-7H-pyrrolo[2,3-d]pyrimidine-6-carboxamide] | – | 100 to 500
14 | – | > 5 | COc1ncnc(C2CC2)c1-c1ncc2cc(C(=O)NC3CC3(F)F)n(Cc3ccc(-c4nc(C(F)(F)F)cn4C(C)C)cc3)c2n1 (stereo not drawn) [Example 10, 2-(4-cyclopropyl-6-methoxypyrimidin-5-yl)-N-(2,2-difluorocyclopropyl)-7-(4-(1-isopropyl-4-(trifluoromethyl)-1H-imidazol-2-yl)benzyl)-7H-pyrrolo[2,3-d]pyrimidine-6-carboxamide] | – | < 100
15 | – | > 5 | COc1ncnc(C2CC2)c1-c1ncc2cc(C(=O)NC3CC3)n(Cc3ccc(-c4nc(C(F)(F)F)cn4C(C)C)cc3)c2n1 [Example 11, N-cyclopropyl-2-(4-cyclopropyl-6-methoxypyrimidin-5-yl)-7-(4-(1-isopropyl-4-(trifluoromethyl)-1H-imidazol-2-yl)benzyl)-7H-pyrrolo[2,3-d]pyrimidine-6-carboxamide] | – | < 100
16 | – | > 5 | COc1ncnc(C2CC2)c1-c1ncc2cc(C(=O)NCCN(C)C)n(Cc3ccc(-c4nc(C(F)(F)F)cn4C(C)C)cc3)c2n1 [Example 12, 2-(4-cyclopropyl-6-methoxypyrimidin-5-yl)-N-(2-(dimethylamino)ethyl)-7-(4-(1-isopropyl-4-(trifluoromethyl)-1H-imidazol-2-yl)benzyl)-7H-pyrrolo[2,3-d]pyrimidine-6-carboxamide] | – | 100 to 500
17 | – | > 5 | COc1ncnc(C2CC2)c1-c1ncc2cc(C(=O)NC3COC3)n(Cc3ccc(-c4nc(C(F)(F)F)cn4C(C)C)cc3)c2n1 [Example 13, 2-(4-cyclopropyl-6-methoxypyrimidin-5-yl)-7-(4-(1-isopropyl-4-(trifluoromethyl)-1H-imidazol-2-yl)benzyl) -N-(oxetan-3-yl)-7H-pyrrolo[2,3-d]pyrimidine-6-carboxamide] | – | < 100
